Experiment [1] deals with Replicase polyprotein 1ab (Middle East respiratory syndrome-related coronavirus (isolate UnitedKingdom/H123990006/2012) (Betacoronavirus England 1) (Humancoronavirus EMC)) (UniProt K9N7C7). Conditions: at 10 µM.
The target of experiment [2] is Replicase polyprotein 1ab (Severe acute respiratory syndrome coronavirus 2, UniProt P0DTD1). Briefly: biochemical. The experiment is classed as functional.
Experiment [3] deals with Replicase polyprotein 1ab (Middle East respiratory syndrome-related coronavirus (isolate UnitedKingdom/H123990006/2012) (Betacoronavirus England 1) (Humancoronavirus EMC), UniProt K9N7C7). Put plainly: biochemical. The experiment is classed as functional.
Sequence of Replicase polyprotein 1ab (Middle East respiratory syndrome-related coronavirus (isolate UnitedKingdom/H123990006/2012) (Betacoronavirus England 1) (Humancoronavirus EMC), UniProt K9N7C7) (K9N7C7 3248-3553 limits assumed): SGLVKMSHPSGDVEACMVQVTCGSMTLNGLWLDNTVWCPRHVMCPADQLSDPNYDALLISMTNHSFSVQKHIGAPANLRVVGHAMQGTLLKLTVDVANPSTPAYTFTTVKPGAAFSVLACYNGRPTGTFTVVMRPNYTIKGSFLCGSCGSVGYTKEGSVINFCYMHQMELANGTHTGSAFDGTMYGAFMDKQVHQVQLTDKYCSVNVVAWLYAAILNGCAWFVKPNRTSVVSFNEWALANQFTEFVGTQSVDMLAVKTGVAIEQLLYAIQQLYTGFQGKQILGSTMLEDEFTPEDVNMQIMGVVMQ
Experiment [4] concerns the target Chymotrypsin (Homo sapiens) (UniProt Q99895+P17538+P40313+Q6GPI1). Put plainly: Chymotrypsin inhibition percentage at 10 µM by FRET kind of response from peptide substrate. The format is functional.

This is an account of results in ChEMBL document CHEMBL4495564, “Identification of inhibitors of SARS-Cov2 M-Pro enzymatic activity using a small molecule repurposing screen” (2020).

Several values for one entry are separate records, joined by “and”; a condition that tells them apart may be missing. Identical values can stand only once. Counter-ions that a name gives are not always drawn.

One may read the inhibition as the drop in the measured response relative to a control, in per cent. As a reminder, the IC50 is the concentration at which inhibition is half-maximal. With `C/N=c1/nc(-c2ccccc2)n(-c2ccccc2)s1`, the inhibition in experiment [1] is 44%. Besides, the IC50 was 0.98 µM in experiment [2] and greater than 10 µM in experiment [3].
In turn, `Nc1nc(S)c2ncn(C3OC(CO)C(O)C3O)c2n1` (stereo unspecified) displayed an IC50 in experiment [2] of 1.08 µM. The inhibition in experiment [4] came to 7.56%.
Turning to `O=C(O)[C@@H](S)[C@@H](S)C(=O)O`, the inhibition in experiment [1] worked out at 0%. The IC50 is 1.72 µM in experiment [2] and greater than 10 µM in experiment [3].
In experiment [2], `CN1CCN(C2=C(Cl)C(=O)N(c3ccc(Cl)c(Cl)c3)C2=O)CC1` gave an IC50 of less than 1.23 µM. Further, the inhibition in experiment [4] came out at 9.67%.
For `CCOc1cc(C(Nc2cc(C)ccn2)c2ccc3cccnc3c2O)ccc1OC` (stereo unspecified) the same measures were less than 0.27 µM and 13.3%.
On to `Cc1ccc(-n2sc(=O)n(Cc3ccc(F)cc3)c2=O)cc1`, for which the figures for the inhibition in experiment [1] and in experiment [4] were 35% and 24.5%, respectively. Moreover, the values for the IC50 in experiment [2] and in experiment [3] were 0.23 µM and greater than 10 µM, respectively.
`Sc1nnnn1-c1ccccc1` came in with an IC50 in experiment [2] of 2.36 µM. The inhibition in experiment [4] came out at 4.48%.
For `CC(C)(C)OC(=O)NCCc1nnc(S(=O)(=O)Cc2ccc(Cl)cc2Cl)o1` the same measures were 4.22 µM and 103%.
The compound `Sc1nnc(Nc2ccccc2)s1` returned an IC50 in experiment [2] of 0.39 µM. Moreover, in experiment [4], the inhibition came out at 4.67%.
Taken in the same sequence, the figures for `CN1CCN(C(=O)c2ccc(-c3ccc4c(C=O)c(O)ccc4c3)s2)CC1` were 1.33 µM and 9.67%.
For `O=C(/C=C/c1ccc(O)c2c1[C@@H](C(=O)O[C@H](Cc1ccc(O)c(O)c1)C(=O)O)[C@H](c1ccc(O)c(O)c1)O2)O[C@H](Cc1ccc(O)c(O)c1)C(=O)O`, the IC50 in experiment [2] is 3.42 µM.
Consider `Cc1ccc(S(=O)(=O)/C=C/C#N)cc1`, for which the inhibition in experiment [1] was determined as 17%. Further, the IC50 in experiment [2] is 0.82 µM; in experiment [3], greater than 10 µM.
For `C/C=C1\C(OC2OC(CO)C(O)C(O)C2O)OC=C(C(=O)OC)C1CC(=O)OCCc1ccc(O)c(O)c1` (stereo unspecified) the same measures were 0%, 3.38 µM and greater than 10 µM.
In turn, `C[C@@H]1O[C@@H](Oc2c(-c3cc(O)c(O)c(O)c3)oc3cc(O)cc(O)c3c2=O)[C@@H](O)[C@H](O)[C@H]1O` had an IC50 in experiment [2] of 3.66 µM.
Consider `Oc1cc(CNC(=S)/C=C/c2cc(O)c(O)c(Br)c2)cc(O)c1O`, for which the inhibition in experiment [1] was found to be 20%. The IC50 in experiment [2] was 0.48 µM; in experiment [3], greater than 10 µM.
With `C=C1C(=O)[C@]23[C@H](O)[C@H]1CC[C@@H]2[C@@]12CO[C@]3(O)C[C@@H]1C(C)(C)CC[C@@H]2O`, in experiment [2], half-maximal inhibition (IC50) was put at 2.57 µM.
As for `O=C1C=Cc2cc(Br)ccc2C1=O`, the inhibition in experiment [1] is 9% and 0%; in experiment [4], 8.47%. The IC50 in experiment [2] was 0.16 µM; in experiment [3], greater than 10 µM.
`CCc1ccc(/C=C/C(=O)Nc2ccc(C(C)=O)cc2)o1` came in with an IC50 in experiment [2] of 4.95 µM.
On to `CCOC(=O)c1c(N)sc(-c2ccccc2)c1C`, for which the IC50 in experiment [2] is 3.19 µM. The inhibition in experiment [4] is 5.82%.
In turn, `C[C@@H]1O[C@@H](O[C@@H]2[C@@H](O)[C@H](OCCc3ccc(O)c(O)c3)O[C@H](CO)[C@H]2OC(=O)/C=C/c2ccc(O)c(O)c2)[C@H](O)[C@H](O)[C@H]1O` [ACETOSIDE] gave an IC50 in experiment [2] of 4.54 µM.
`COc1cccc2c1C(=O)c1c(O)c3c(c(O)c1C2=O)C[C@@](O)(/C(CO)=N/NC(=O)CCCCCN1C(=O)C=CC1=O)C[C@@H]3O[C@H]1C[C@H](N)[C@H](O)[C@H](C)O1` [ALDOXORUBICIN]: in experiment [1], the inhibition is 1%. Moreover, the IC50 is 0.58 µM in experiment [2] and greater than 10 µM in experiment [3].
In experiment [2], `COc1nc2ccc(Br)cc2cc1[C@@H](c1ccccc1)[C@@](O)(CCN(C)C)c1cccc2ccccc12` [BEDAQUILINE] had an IC50 of 4.36 µM.
Take `C[C@@](Cc1ccc(O)c(O)c1)(NN)C(=O)O` [CARBIDOPA ANHYDROUS]: in experiment [1], the inhibition turned out to be 0%. Moreover, the IC50 in experiment [2] was 3.55 µM; in experiment [3] it was greater than 10 µM.
On to `O=C1C(Cl)=C(Cl)C(=O)C(Cl)=C1Cl` [CHLORANIL], for which the IC50 in experiment [2] was less than 0.02 µM. The inhibition in experiment [4] stood at 10.1%.
With `CC(C)Nc1cccnc1N1CCN(C(=O)c2cc3cc(NS(C)(=O)=O)ccc3[nH]2)CC1` [DELAVIRDINE MESYLATE], the inhibition in experiment [1] was 34%; in experiment [4], 9.13%. Further, the IC50 was 3.99 µM in experiment [2] and greater than 10 µM in experiment [3].
As for `C[n+]1c2cc(N)ccc2cc2ccc(N)cc21` [EUFLAVINE], the IC50 in experiment [2] was 4.98 µM.
Regarding `Cc1c(OCC(F)(F)F)ccnc1C[S+]([O-])c1nc2ccccc2[nH]1` (stereo unspecified) [LANSOPRAZOLE], the inhibition in experiment [1] is 47%; in experiment [4] it was 6.43% and 5.66%. Further, the values for the IC50 in experiment [2] and in experiment [3] were 0.39 µM and greater than 10 µM, respectively.
In the case of `Cc1c(-c2cnccn2)ssc1=S` [OLTIPRAZ], the inhibition in experiment [1] was 10% and 0%; in experiment [4], 9.89%. Also, the IC50 in experiment [2] is 0.62 µM; in experiment [3], greater than 10 µM.
Consider `Nc1ccc2cc3ccc(N)cc3nc2c1` [PROFLAVINE], for which the IC50 in experiment [2] was 0.36 µM; in experiment [3], greater than 10 µM. Also, the inhibition in experiment [4] is 16.3%.
In turn, `O=c1c(O)cccc2cc(O)c(O)c(O)c12` [PURPUROGALLIN] showed an IC50 in experiment [2] of 4.58 µM. The inhibition in experiment [4] turned out to be 9.33%.
On to `[O-][n+]1ccccc1S` [PYRITHIONE ZINC], for which the values for the IC50 in experiment [2] and in experiment [3] (tested as the Zn salt or complex) were 2.46 µM and greater than 10 µM, respectively.
On to `[O-][n+]1ccccc1S` [PYRITHIONE], for which, in experiment [2], the IC50 stood at 0.05 µM.
Turning to `S=C(S)N1CCCC1` [PYRROLIDINE DITHIOCARBAMIC ACID, AMMONIUM SALT], the inhibition in experiment [1] came out at 42%. The IC50 in experiment [2] is 0.21 µM; in experiment [3], greater than 10 µM.
Consider `CC(CN1CC(=O)NC(=O)C1)N1CC(=O)NC(=O)C1` (stereo unspecified) [RAZOXANE], for which the inhibition in experiment [1] was 7%; in experiment [4] it was -0.92%. For the same compound, the IC50 in experiment [2] was 3.19 µM; in experiment [3], greater than 10 µM.
As for `O=C(O)c1cc(O)c2c(c1)[C@H]([C@H]1c3cc(C(=O)O)cc(O)c3C(=O)c3c(O[C@@H]4O[C@H](CO)[C@@H](O)[C@H](O)[C@H]4O)cccc31)c1cccc(O[C@@H]3O[C@H](CO)[C@@H](O)[C@H](O)[C@H]3O)c1C2=O` [Sennoside A], the inhibition worked out at 42% in experiment [1] and 2.66% in experiment [4]. This compound also came in with an IC50 in experiment [3] greater than 10 µM.
Regarding `O=c1sn(-c2cccc3ccccc23)c(=O)n1Cc1ccccc1` [TIDEGLUSIB], the inhibition is 22% and 0% in experiment [1]; 30.7% in experiment [4]. The IC50 in experiment [3] was greater than 10 µM.
Take `Cc1ccc(S(=O)(=O)N[C@@H](Cc2ccccc2)C(=O)CCl)cc1` [TPCK]: 1.37 µM corresponded to half-maximal inhibition in experiment [2] (IC50). Also, the inhibition in experiment [4] was 39.6%.
As for `CC(C)c1cc(CNc2nc(Nc3cc(C4CC4)[nH]n3)cc(N3CCN(C)CC3)n2)on1` [XL-228], the inhibition in experiment [1] is 9%. The IC50 in experiment [2] was 1.49 µM; in experiment [3], greater than 10 µM.
ACRIFLAVINE HYDROCHLORIDE: the IC50 in experiment [2] is 1.93 µM; in experiment [3], 10 µM.
For AUROTHIOGLUCOSE the same measures were 1.74 µM and 10 µM.
CISPLATIN returned an IC50 in experiment [2] of 3.82 µM.
As for MERBROMIN, the IC50 in experiment [2] was 0.24 µM; in experiment [3], greater than 10 µM.
For PHENYLMERCURIC ACETATE the same measures were 0.01 µM and greater than 10 µM.
